From patent US9255101B2 (BIOPROJECT, priority 2012, dated 2016) come the findings set out here.

Structures are written as SMILES. Where a name gives a salt, the structure may show the parent alone.

In series [1] the target is T1, human H4 receptor (Homo sapiens, UniProt Q9H3N8). Description: biochemical.
For series [2], the target named is T1, human H4 receptor. Description: biochemical. This is another data set of the same source.
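For IC50 in this document: membranes from SH-SY5Y cells with stable human H4 receptor expression, incubated with GDP 10 µM, radioactivity retained on filters counted by liquid scintillation.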
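For Ki in this document: radioligand displacement of a [3H]-labelled ligand from membranes of CHO cells stably expressing human H4 receptor, bound radioactivity counted on filters by liquid scintillation.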

T1 sequence (Q9H3N8 whole entry): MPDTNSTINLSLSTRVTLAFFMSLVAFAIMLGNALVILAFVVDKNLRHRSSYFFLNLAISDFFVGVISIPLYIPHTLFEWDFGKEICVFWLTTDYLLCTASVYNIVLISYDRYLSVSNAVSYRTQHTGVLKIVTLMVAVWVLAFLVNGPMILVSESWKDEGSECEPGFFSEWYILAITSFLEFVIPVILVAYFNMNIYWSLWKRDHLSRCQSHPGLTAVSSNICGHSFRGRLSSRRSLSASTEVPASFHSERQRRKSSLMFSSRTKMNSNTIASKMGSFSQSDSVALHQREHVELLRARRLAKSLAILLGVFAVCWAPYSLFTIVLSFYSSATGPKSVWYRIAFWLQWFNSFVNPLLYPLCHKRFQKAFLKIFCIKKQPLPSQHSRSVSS

The Ki is the dissociation constant of the complex between target and ligand, obtained from inhibition or displacement. A higher Ki goes with weaker binding. In general, melting point refers to the temperature, or range, at which the solid turns liquid. Take `Cc1ccc(-c2nc3n(c2C)CCc2ccccc2C3OC2CCN(C)CC2)c(Cl)c1` (stereo not shown) [Example 157, 2-(2-chloro-4-methylphenyl)-1-methyl-4-(1-methylpiperidin-4-yloxy)-9,10-dihydro-4H-3,10a-diaza-benzo[f]azulene]: the melting point was determined as 133 °C. In addition, the Ki on human H4 receptor [1] was below 0.03 µM.

`CC(C)c1c(-c2ccccc2)nc2n1CCc1ccccc1C2OC1CCN(C)CC1.O=C(O)C(=O)O.O=C(O)C(=O)O` (stereo not shown) [Example 243, 1-isopropyl-4-(1-methylpiperidin-4-yloxy)-2-phenyl-9,10-dihydro-4H-3,10a-diaza-benzo[f]azulene dioxalate] returned a melting point of 90 °C. On human H4 receptor [1], this molecule displayed a Ki below 0.3 µM.

In turn, `CN1CCC(OC2c3ccccc3CCn3c2nc(-c2ccccc2)c3-c2ccccc2)CC1` (stereo not shown) [Example 252, 4-(1-methylpiperidin-4-yloxy)-1,2-diphenyl-9,10-dihydro-4H-3,10a-diaza-benzo[f]azulene] returned a melting point of 90 °C. The molecule also gave a Ki at human H4 receptor [1] below 0.3 µM.

For the molecule `CN1CCC(OC2c3cccc(-c4cccc(N)c4)c3CCn3cc(-c4ccccc4)nc32)CC1` (stereo not shown) [Example 242, 3-[4-(1-methylpiperidin-4-yloxy)-2-phenyl-9,10-dihydro-4H-3,10a-diaza-benzo[f]azulen-8-yl]-phenylamine], the melting point stood at 120 °C. This molecule also came in with a Ki at human H4 receptor [1] below 1 µM.

The molecule `CN1CCC(OC2c3ccccc3CCn3cc(-c4ccc(N)cc4)nc32)CC1` (stereo not shown) [Example 16, 4-[4-(1-methylpiperidin-4-yloxy)-9,10-dihydro-4H-3,10a-diaza-benzo[f]azulen-2-yl]-phenylamine] came in with a melting point of 197 °C. The same molecule came in with a Ki at human H4 receptor [1] below 1 µM.

On to `COc1ccccc1-c1nc2n(c1C)CCc1ccccc1C2OC1CCN(C)CC1` (stereo not shown) [Example 149, 2-(2-methoxyphenyl)-1-methyl-4-(1-methylpiperidin-4-yloxy)-9,10-dihydro-4H-3,10a-diaza-benzo[f]azulene], for which the melting point amounted to 139 °C. The molecule further gave a Ki on human H4 receptor [1] below 0.3 µM.

`Cc1c(-c2ccc(F)cc2)nc2n1CCc1ccccc1C2OC1CCN(C)CC1` (stereo not shown) [Example 154, 2-(4-fluorophenyl)-1-methyl-4-(1-methylpiperidin-4-yloxy)-9,10-dihydro-4H-3,10a-diaza-benzo[f]azulene] came in with a melting point of 168 °C. The molecule further registered a Ki on human H4 receptor [1] below 0.03 µM.

With `Cc1c(C(=O)NCc2ccccc2)nc2n1CCc1ccccc1C2OC1CCN(C)CC1` (stereo not shown) [Example 222, 1-methyl-4-(1-methylpiperidin-4-yloxy)-9,10-dihydro-4H-3,10a-diaza-benzo[f]azulene-2-carboxylic acid benzylamide], the melting point stood at 161 °C.

As usually defined, the IC50 is the midpoint of a concentration-inhibition curve. A higher IC50 goes with weaker potency in that assay. `CN1CCC(OC2c3ccccc3CCn3cc(-c4ccc(CN5CCCCCC5=O)cc4)nc32)CC1` (stereo not shown) [Example 188, 1-{4-[4-(1-methylpiperidin-4-yloxy)-9,10-dihydro-4H-3,10a-diaza-benzo[f]azulen-2-yl]benzyl}-azepan-2-one] registered an inhibitory constant (Ki) on human H4 receptor [1] below 0.3 µM. For the same molecule, on human H4 receptor [2], the IC50 is below 0.3 µM.

In turn, `CSc1ccc(-c2cn3c(n2)C(OC2CCN(C)CC2)c2ccccc2CC3)cc1` (stereo not shown) [Example 20, 4-(1-methylpiperidin-4-yloxy)-2-(4-methylsulfanylphenyl)-9,10-dihydro-4H-3,10a-diaza-benzo[f]azulene] registered a Ki at human H4 receptor [1] below 0.03 µM. The same molecule displayed an IC50 against human H4 receptor [2] below 0.03 µM.

At human H4 receptor [1], `Cc1c(-c2ccc(Br)cc2)nc2n1CCc1ccccc1C2OC1CCN(C)CC1` (stereo not shown) [Example 122, 2-(4-bromophenyl)-1-methyl-4-(1-methylpiperidin-4-yloxy)-9,10-dihydro-4H-3,10a-diaza-benzo[f]azulene] registered a Ki below 0.03 µM. The same molecule displayed an IC50 at human H4 receptor [2] below 0.03 µM.

Turning to `CN1CCC(OC2c3ccccc3CCn3cc(C=CC(C)(C)C)nc32)CC1` (stereo not shown) [Example 93, 2-(3,3-dimethylbut-1-enyl)-4-(1-methylpiperidin-4-yloxy)-9,10-dihydro-4H-3,10a-diaza-benzo[f]azulene], the inhibitory constant (Ki) at human H4 receptor [1] was below 0.03 µM. At human H4 receptor [2], the IC50 was below 0.03 µM.

On human H4 receptor [1], `CN1CCC(OC2c3ccccc3CCn3cc(C=CCc4ccccc4)nc32)CC1` (stereo not shown) [Example 76, 4-(1-methylpiperidin-4-yloxy)-2-(3-phenylpropenyl)-9,10-dihydro-4H-3,10a-diaza-benzo[f]azulene oxalate] displayed a Ki below 0.03 µM. At human H4 receptor [2], this molecule showed an IC50 below 0.3 µM.

With `CN1CCC(OC2c3ccccc3CCn3cc(-c4ccc(C(C)(F)F)cc4)nc32)CC1` (stereo not shown) [Example 64, 2-[4-(1,1-difluoroethyl)-phenyl]-4-(1-methylpiperidin-4-yloxy)-9,10-dihydro-4H-3,10a-diaza-benzo[f]azulene oxalate], the Ki at human H4 receptor [1] is below 0.3 µM. For the same molecule, the IC50 against human H4 receptor [2] was below 0.03 µM.

On human H4 receptor [1], `CN1CCC(OC2c3ccccc3CCn3cc(SCc4cccs4)nc32)CC1` (stereo not shown) [Example 88, 4-(1-methylpiperidin-4-yloxy)-2-(thiophen-2-ylmethylsulfanyl)-9,10-dihydro-4H-3,10a-diaza-benzo[f]azulene oxalate] returned a Ki below 0.3 µM. On human H4 receptor [2], this molecule displayed an IC50 below 1 µM.

At human H4 receptor [1], `CN1CCC(OC2c3ccccc3CCn3cc(-c4ccc(C(F)F)cc4)nc32)CC1` (stereo not shown) [Example 69, 2-(4-difluoromethylphenyl)-4-(1-methylpiperidin-4-yloxy)-9,10-dihydro-4H-3,10a-diaza-benzo[f]azulene] registered a Ki below 0.03 µM. The molecule also displayed an IC50 against human H4 receptor [2] below 0.3 µM.

On human H4 receptor [1], `CN1CCC(OC2c3ccccc3CCn3cc(-c4cccs4)nc32)CC1` (stereo not shown) [Example 47, 4-(1-methylpiperidin-4-yloxy)-2-thiophen-2-yl-9,10-dihydro-4H-3,10a-diaza-benzo[f]azulene oxalate] came in with a Ki below 0.3 µM. The IC50 against human H4 receptor [2] was below 0.3 µM.

On human H4 receptor [1], `CN1CCC(OC2c3ccccc3CCn3cc(C4=CCCC4)nc32)CC1` (stereo not shown) [Example 65, 2-cyclopent-1-enyl-4-(1-methylpiperidin-4-yloxy)-9,10-dihydro-4H-3,10a-diaza-benzo[f]azulene] returned a Ki below 0.3 µM. This molecule also displayed an IC50 against human H4 receptor [2] below 1 µM.

For the molecule `CN1CCC(OC2c3cccc(Br)c3CCn3cc(I)nc32)CC1` (stereo not shown) [Example 79, 8-bromo-2-iodo-4-(1-methylpiperidin-4-yloxy)-9,10-dihydro-4H-3,10a-diaza-benzo[f]azulene], at human H4 receptor [1], the Ki was below 0.3 µM. The 50% inhibitory concentration (IC50) on human H4 receptor [2] is below 1 µM.

Consider `CCc1ccc(-c2cn3c(n2)C(OC2CCN(C)CC2)c2ccccc2CC3)cc1` (stereo not shown) [Example 21, 2-(4-ethylphenyl)-4-(1-methylpiperidin-4-yloxy)-9,10-dihydro-4H-3,10a-diaza-benzo[f]azulene], for which, on human H4 receptor [1], the Ki was below 0.3 µM. Moreover, the IC50 at human H4 receptor [2] is below 0.03 µM.

Molecule `CN1CCC(OC2c3ccccc3CCn3cc(C4=CCCCC4)nc32)CC1` (stereo not shown) [Example 62, 2-cyclohex-1-enyl-4-(1-methylpiperidin-4-yloxy)-9,10-dihydro-4H-3,10a-diaza-benzo[f]azulene oxalate] displayed a Ki at human H4 receptor [1] below 0.3 µM. The same molecule gave an IC50 against human H4 receptor [2] below 0.3 µM.

With `CC(C)c1ccc(-c2cn3c(n2)C(OC2CCN(C)CC2)c2ccccc2CC3)cc1` (stereo not shown) [Example 32, 2-(4-isopropylphenyl)-4-(1-methyl-piperidin-4-yloxy)-9,10-dihydro-4H-3,10a-diaza-benzo[f]azulene oxalate], on human H4 receptor [1], the inhibitory constant (Ki) is below 0.3 µM. Further, the IC50 on human H4 receptor [2] is below 0.3 µM.
